From patent US20210038668A1, “TRADITIONAL CHINESE MEDICINE COMPOSITION FOR PREVENTING AND/OR TREATING ISCHEMIC REPERFUSION INJURY” (TASLY PHARMACEUTICAL GROUP CO., LTD., priority 2018, published 2021)

Legend:
Assay type in all cases: in vivo, C57BL/6 mice
[1] = tested on: brain tissue (blood brain barrier leakage); experiment: Evens Blue leakage in brain tissue; conditions: 24 h after administration; method: microgram Evens Blue per gram brain tissue; tPA 10 mg/kg alone; T541 20 mg/kg + tPA 10 mg/kg
Procedure: Evens Blue leakage: after reperfused for 21 hours, mice were slowly injected an Evens Blue dye (2%, 4 ml/kg) dissolving in normal saline via femoral vein. 3 hours later, mice were perfused 15-20 ml of normal saline till auricula dextra flows colourless liquid, then the brain was immediately separated and immobilized in a 3% paraformaldehyde for 3 hours, then taken out, the brain was cut into 5 slices and shoot; left and right brain was separated and respectively weighed. Left and right brain was respectively added to an EP tube containing 1 ml of 50% trichloroacetic acid, homogenated and centrifuged to obtain the supernatant. An Evens Blue standard was prepared and the content of Evens Blue was detected by a multimode reader (exciting light: 620 nm, emitting light: 680 nm). The content of Evens Blue was denoted by the microgram of Evens Blue in per gram of brain tissue.

[2] = tested on: thrombus of arteria carotis communis; experiment: Observation of carotid thrombus size, FeCl3 model
Procedure: (§1) Mice were anesthetized via intraperitoneal injection by pentobarbital sodium (2%, 45 mg/kg), and neck kin was sterilized. A median incision was cut on the neck, exposed and isolated to obtain arteria carotis communis; a waterproof cushion was used to isolate arteria carotis communis with the length of about 2.5-3 mm from surrounding tissues. The isolated arteria carotis communis was wrapped by a filter paper soaked by 10% FeCl3 for about 1 mm (width), and the filter paper was removed 3 minutes later, the outside of blood vessel was washed by 0.9% normal saline. The waterproof cushion was removed. The neck incision was sutured. The start of Fe3+ stimulation was defined as the beginning of ischemia, and those mice meeting the following conditions were selected into the group: the blood vessel was blocked at the maximum diameter of the neck thrombus 10 minutes after ischemia; the blood flow of the carotid artery distal end was less than 20% of the base value 15 minutes after ischemia; and the thrombus was stable 4.5 hours after ischemia (before reperfusion); the carotid artery vessel at 60% and more of the diameter was blocked by the maximum diameter of the thrombus.
(§2) Mice were treated by medicaments or normal saline according to random grouping results 4.5 hours after ischemia. Mice femoral vein was intubated, and left femoral vein was injected tPA (tissue plasminogen activator) or normal saline; right femoral vein was injected the traditional Chinese medicinal composition of the present invention or normal saline; 10% of the total dose was injected via an injection pump, and the rest 90% were continuously injected intravenously for 1 hour with the rate of 0.1 ml/h. Three proportion groups were selected to the traditional Chinese medicinal composition of the present invention respectively below:
Carotid thrombus of mice was dynamically observed by an upright microscope. Anesthetized mice were placed on a board in supine position, a median incision was cut on the neck; arteria carotis communis was exposed and separated; femoral vein was given Acridine red fluorescence labeling of blood platelet to observe the change of carotid thrombus of mice before ischemia (namely, a base value), 10 minutes after ischemia, 4.5 hours after ischemia (namely, before reperfusion), 1 hour after reperfusion, 2 hours after reperfusion and 24 hours after reperfusion. There was no thrombus before ischemia (namely, a base value); the blood vessel was blocked by thrombus at a maximum diameter 10 minutes after ischemia; blood flow at the distal end of carotid artery decreased to 20% of the base value below 15 minutes after ischemia; the thrombus was stable 4.5 hours after ischemia (namely, before reperfusion). The success criterion is that the size of thrombus blocks 60% of the vascular area of carotid artery and above; the success rate of entry is up to 90.9%. Excepting for the sham-operated group and each basal group, the rest groups were randomly allocated after building models successfully.

[3] = tested on: blood flow of cerebral cortex; experiment: Cerebral blood flow by Laser Doppler Flowmetry
Procedure: as §1, §2
A computer-linked Laser Doppler Flowmetry was used to measure the blood flow of cerebral cortex in the dominant region of bilateral middle cerebral arteries. Anesthetized mice were placed on a board in supine position; skin on the parietal bone of both sides was cut to fully expose the parietal bone; a computer-linked low-energy He—Ne laser probe was placed away 16-18 cm on the parietal bone to detect the blood flow of pia mater in the blood supply region of bilateral middle cerebral arteries of mice before ischemia (namely, a base value), 10 minutes after ischemia, 4.5 hours after ischemia (namely, before reperfusion), 1 hour after reperfusion, 2 hours after reperfusion and 24 hours after reperfusion. A cerebral blood flow analysis software LDPIwin 3.1 (PeriScan PIM3 System, PERIMED, Stockholm, Sweden) was used to calculate the blood flow of cerebral cortex in the same region dominated by bilateral MCA.

[4] = before administration, groups: tPA 10 mg/kg alone, T541 20 mg/kg, T141 12 mg/kg, T582 15 mg/kg each + tPA 10 mg/kg
[5] = iv, tPA 10 mg/kg alone, T541 20 mg/kg, T141 12 mg/kg, T582 15 mg/kg each + tPA 10 mg/kg
[6] = start of administration, groups: tPA 10 mg/kg alone, T541 20 mg/kg, T141 12 mg/kg, T582 15 mg/kg each + tPA 10 mg/kg

tPA: tissue-type plasminogen activator (tPA) for thrombolysis
Evens Blue leakage [1]: 17.55 ± 1.23 | Size of thrombus, 10 minutes after FeCl3 simulation [2, 4]: 25.13 ± 1.34 | Size of thrombus, Before FeCl3 simulation [2, 4]: 0 ± 0 | thrombolysis effect (in words) ([2]; given alone: T541 20 mg/kg, tPA 10 mg/kg (24 hours later)): size of thrombus decreases obviously | Size of thrombus, 5.5 hours after FeCl3 simulation (1 hour after administration) [2, 5]: 22.14 ± 1.36 | Size of thrombus, 6.5 hours after FeCl3 simulation (2 hours after administration) [2, 5]: 16.64 ± 4.10 | Size of thrombus, 28.5 hours after FeCl3 simulation (24 hours after administration) [2, 5]: 11.15 ± 2.61 | Size of thrombus, 4.5 hours after FeCl3 simulation [2, 6]: 23.47 ± 1.78 | Cerebral blood flow, 10 minutes after FeCl3 simulation [3, 4]: 55.20 ± 5.69 | Cerebral blood flow, Before FeCl3 simulation [3, 4]: 100.25 ± 1.19 | recovery of brain blood flow (in words) ([3]; high-dose T541 or tPA simply given, T141, T582 with tPA): no obvious recovery of the brain blood flow | Cerebral blood flow, 5.5 hours after FeCl3 simulation (1 hour after administration) [3, 5]: 47.56 ± 6.13 | Cerebral blood flow, 6.5 hours after FeCl3 simulation (2 hours after administration) [3, 5]: 41.46 ± 4.49 | Cerebral blood flow, 28.5 hours after FeCl3 simulation (24 hours after administration) [3, 5]: 42.40 ± 4.61 | Cerebral blood flow, 4.5 hours after FeCl3 simulation [3, 6]: 49.58 ± 7.44
